In patent US20230323296A1, “STEM CELL-LIKE MEMORY T CELLS AND USES THEREOF” (GEORGETOWN UNIVERSITY, priority 2020, published 2023):

Tests used:
[1] = test system: CD4 cells from the splenocytes of wild type (WT) mice; assay: In vitro assay of TSCM induction in activated CD4 cells (FACS); assay type: cell-based; conditions: TCONV cells activated with IL-2/anti-CD3/anti-CD28, 72 hours, MEKi 1 uM, vs cells activated without MEK1/2 inhibitor; FIG. 2A
Description: T conventional (TCONV) cells (from mouse spleen), defined as CD4^+FoxP3^− cells, were activated (Act) by IL-2 with anti-CD3/anti-CD28 in the presence (+) or absence (−) of MEK1/2 inhibitor for 72 hours, and the number of Sca1^+CD62L^+CD44^−CD4^+ T cells was determined by flow cytometry sorting (FACS).
CD4 cells from the splenocytes of wild type (WT) mice were prepared by magnetic purification using Biolegend cell sorting kits, as per the manufacturer's instructions. Purified cells were activated by plating 1×10^6/ml in cell activation medium that contained rIL-2 (100 IU/ml), anti-CD3 (5 ug/ml), anti-CD28 (2.5 ug/ml) and MEKi (1 uM). Appropriate arms (only cell activation and only IL-2 treatment) were also included for valid comparisons. After 72 hours of incubation at 37° C., at 5% CO2 in a humidified incubator, cells were picked up and processed for FACS analysis of TSCM induction.

[2] = test system: CD4+ T cells in the tumor microenvironment (TME); assay: In vivo TSCM generation in TC-1 tumor bearing mice (FACS of tumors); conditions: MEKi 10 mg/Kg oral gavage, 15 doses
Description: Mice were treated and tumors were isolated. The frequency of CD4^+ cells in variously treated mice (UT, untreated; Vax; MEKi, MEK1/2 inhibitor only; and Vax +MEKi, both E7 and MEK inhibitor) were determined. Error bars represent mean±SEM. (^NSnon-significant, *p≤0.05, **p≤0.01). For Vax treated mice, The CTL epitope from HPV16 E749-57 (RAHYNIVTF, 100 μg/mouse) was used mixed with PADRE, a small 13-mer non-natural pan HLA DR-binding sequence that is a potent T helper cell epitope (20 μg/mouse-Celtek Bioscience, Franklin, TN), and QuilA (adjuvant, 10 μg/mouse-Brenntag, Westbury, NY). Two doses of the vaccine were administered subcutaneously (s.c.) every seven days starting at an average tumor volume of 0.07-0.08 cm^3. Three days after the second vaccination, mice were sacrificed and expression of various markers was analyzed in cells from the tumors by flow cytometry
The frequency of CD62L^+CD44^− CD4^+ T cells in variously treated mice as described for FIG. 1A were determined. Error bars represent mean±SEM. (^NSnon-significant, *p≤0.05, **p≤0.01).
TC-1 tumor bearing mice were treated with an MEK inhibitor (MEKi) (10 mg/Kg), for a total of 15 doses, given everyday by oral gavage, starting when tumor reached an average size of 0.05 cm^3. […] The single-cell suspended tumors were labelled with appropriately conjugated fluorophore conjugated antibodies and analyzed by FACS.

Q: For `N#CC(=C(N)Sc1ccc(N)cc1)c1ccccc1C(F)(F)F` [MEK1/2 inhibitor], which “generation of Sca1+ TNAIVE CD4+ T cells” value [1] is on record?
A: significantly enhanced

Q: What about the “numbers of CD4+ T cells in the tumor microenvironment (TME)” value ([2]; FIG. 1A) of the same molecule?
A: increases

Q: What about the “induction of CD4+ T cells with a naive-like phenotype (CD62L+CD44-) in the TME” value ([2]; FIG. 1B) of the same molecule?
A: significantly enhanced
